From patent US11241427B2, “Small molecule modulators of NR2F6 activity” (Regen Biopharma, Inc., priority 2015, dated 2022) come the findings set out here.

Read-outs that look alike come from different tables or passages of the source.

The experiment concerns the target T1, NR2F6 (ligand binding domain, amino acids 163-404) (Homo sapiens, UniProt P10588).
T1 construct: HIS (N, cleaved yes); FLAG (N, cleaved yes); TEV site (N, cleaved yes); made in house; host or cells: E. coli BL21 (DE3)
T1 sequence (P10588 163-404): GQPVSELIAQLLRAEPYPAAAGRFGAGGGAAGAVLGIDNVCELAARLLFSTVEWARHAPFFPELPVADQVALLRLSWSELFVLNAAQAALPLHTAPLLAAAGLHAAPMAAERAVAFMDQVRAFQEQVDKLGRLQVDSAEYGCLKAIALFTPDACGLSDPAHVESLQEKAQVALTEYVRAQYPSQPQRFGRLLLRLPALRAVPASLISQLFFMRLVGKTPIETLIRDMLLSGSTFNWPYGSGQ
The experiment is described as follows: Thermoshift analysis (TSA) of compound binding to NR2F6. The conditions noted are these: for Tm: 0.5 mg/ml NR2F6, 1% DMSO, NR2F6 alone Tm 48 °C. The procedure: The binding interaction between target protein NR2F6 and 139 compounds selected from an in silico screen was assessed using thermoshift analysis (TSA). Thermoshift is a physical technique used to determine the melting temperature of a protein. The interaction of the ligand to the folded state of the protein shifts the melting temperature. In the experimental system used, the NR2F6 protein is mixed with the ligand and the fluorescent dye SYPRO Orange®. The fluorescence is monitored over temperature gradient between 20 and 95° C. with 0.5° C. increment. The dye binds to the hydrophobic regions of molten globules and denatured proteins resulting in an increase of fluorescence. A plot of the fluorescence is obtained and used to determine the melting temperature in absence and presence of ligand.
The ligand binding domain of NR2F6 (amino acids 163-404) was cloned for soluble expression in E. coli with an N-terminal HIS-FLAG-TEV-tag. Expression was performed in BL21 (DE3) cells. In brief, a 12L E. coli culture was induced with IPTG in logarithmic phase and further incubated over night at 18° C. Cells were harvested via centrifugation, washed with buffer and stored at […] until purification.
The purification procedure performed consists of HIS affinity chromatography, tag cleavage, negative affinity chromatography, size exclusion chromatography and ion exchange chromatography.
Thermoshift analysis was performed on 139 Compounds that were stored as powder in DMSO stocks. A reaction volume of 25 μl was used, with reaction temperatures being increased in 0.5 increments from 20-95° C. in 96 well, PCR plates (Hard-Shell®, HSP-9655). The control was NR2F6 protein alone in 1% DMSO. For performing the reaction, a reaction buffer comprising of the following was utilized: 20 mM HEPES pH 6.85, 150 mM NaCl, 10% Glycerin and 0.5 mM TCEP.
The following pipetting sequence was used: 1) Add appropriate volume of target enzyme in reaction buffer; 2) Add appropriate volume of dye SYPRO Orange® in reaction buffer; 3) Add inhibitor in 100% DMSO (1% final DMSO conc); 4) Measure fluorescence
Fluorescence was quantified using a CFX Connect™ Real-Time PCR Detection System (BioRad)
An increase in melting temperature is indicative for compound binding.

[1] abbreviates: Table 1.1, 100 μM compound, shift versus NR2F6 alone (Tm 48 °C).
[2] abbreviates: Table 1.1, 100 μM compound, shift versus NR2F6 alone (Tm 48 °C), read-out: delta Tm.

As to `CCCCCC=CCC=CCC=CCC=CCCCC(=O)O` [Cpd 84, 5,8,11,14-Eicosatetranoic acid], the Tm (Table 1.1, 100 μM compound) turned out to be 46.5 °C. The “delta Tm” value under setting [1] is −1.5 °C.

As for `C[C@H](CCC(=O)NCCS(=O)(=O)O)[C@H]1CC[C@H]2[C@@H]3CC[C@@H]4C[C@H](O)CC[C@]4(C)[C@H]3C[C@H](O)[C@]12C` [Cpd 81, Taurodeoxycholic acid], under “Table 1.1, 100 μM compound”, the Tm was 47.5 °C. The ΔTm at 100 µM under setting [2] is -0.5 °C.

`CC(=O)c1c(C)[nH]c(C(=O)COc2cc(C)ccc2C(C)C)c1C` [Cpd 125]: where the note is “Table 1.1, 100 μM compound”, the Tm was 47.5 °C. The “delta Tm” value under setting [1] is −0.5 °C.

As to `Cc1cccc(Nc2cc(Cl)nc(SCC(=O)O)n2)c1C` [Cpd 66, WY-14643], the Tm (Table 1.1, 100 μM compound) was 47.5 °C. Moreover, the ΔTm at 100 µM under setting [2] was -0.5 °C.

For the compound `CC(=O)c1c(C)[nH]c(C(=O)OCCCCN2C(=O)c3ccccc3C2=O)c1C` [Cpd 121], the Tm (Table 1.1, 100 μM compound) turned out to be 48 °C. Also, the “delta Tm” value under setting [1] worked out at 0 °C.

In the case of `O=C(Nc1ccncc1)c1ccc(Cl)c(S(=O)(=O)N2CCc3ccccc32)c1` [Cpd 132], under “Table 1.1, 100 μM compound”, the Tm was found to be 47.5 °C. The “delta Tm” value under setting [1] is −0.5 °C.

Regarding `Cc1nn(C)c(C)c1NC(=O)COc1ccc(Cl)cc1Br` [Cpd 127], the Tm (Table 1.1, 100 μM compound) was 47.5 °C. In addition, the “delta Tm” value under setting [1] is −0.5 °C.

As to `CCN(CC)S(=O)(=O)c1ccc(/C=C/C(=O)Nc2ccc(Br)cc2F)cc1` [Cpd 117], the Tm (Table 1.1, 100 μM compound) is 48.5 °C. For the same compound, the “delta Tm” value under setting [1] amounted to 0.5 °C.

Turning to `CC(=O)[C@H]1CC[C@H]2[C@@H]3CC=C4C[C@@H](O)CC[C@]4(C)[C@H]3CC[C@]12C` [Cpd 71, Pregnenoione], the Tm (Table 1.1, 100 μM compound) came out at 48 °C. Also, under setting [1], the “delta Tm” value came out at 0 °C.

As for `CC(C)c1onc(-c2c(Cl)cccc2Cl)c1COc1ccc(/C=C/c2cccc(C(=O)O)c2)c(Cl)c1` [Cpd 82, GW4064], the Tm (Table 1.1, 100 μM compound) worked out at 35 °C. In addition, the “delta Tm” value under setting [1] is −13 °C.

For `Cc1ccc(F)cc1NC(=O)Cc1nn(C)c(=O)c2ccccc12` [Cpd 135], the Tm (Table 1.1, 100 μM compound) was found to be 47.5 °C. In addition, under setting [1], the “delta Tm” value is −0.5 °C.

`S=C(NCCc1ccccc1)Nc1cccc2cnccc12` [Cpd 136]: the Tm (Table 1.1, 100 μM compound) was found to be 47.5 °C. The “delta Tm” value under setting [1] was −0.5 °C.

For the compound `C[C@]12CCC(=O)C=C1CC[C@@H]1[C@@H]2CC[C@]2(C)C(=O)CC[C@@H]12` [Cpd 77, Androstenedione], the ΔTm at 100 µM was -1 °C. The Tm (Table 1.1, 100 μM compound) was found to be 47 °C.

Take `COc1ccc(/C=N/OCC(=O)NC(c2ccccc2)c2ccccc2)cc1OC` [Cpd 138]: the Tm (Table 1.1, 100 μM compound) came out at 46 °C. In addition, the “delta Tm” value under setting [1] is −2 °C.

As to `Cc1c(C)c2c(c(C)c1O)CCC(C)(COc1ccc(CC3SC(=O)NC3=O)cc1)O2` (stereo not drawn) [Cpd 79, Troglitazone], the ΔTm at 100 µM under setting [2] amounted to 0 °C.

As to `Cc1ccc(C)c(OCCCC(C)(C)C(=O)O)c1` [Cpd 68, Gemfibrozil], the Tm (Table 1.1, 100 μM compound) came to 47.5 °C. In addition, the ΔTm at 100 µM under setting [2] was -0.5 °C.

For the compound `CCCCCCn1c(NCC)nc2c1c(=O)n(C)c(=O)n2C` [Cpd 130], under “Table 1.1, 100 μM compound”, the Tm is 47.5 °C. Further, under setting [1], the “delta Tm” value is −0.5 °C.

Take `c1ccc(CNc2ncnc3ccccc23)cc1` [Cpd 134]: under “Table 1.1, 100 μM compound”, the Tm was 47.5 °C. Besides, under setting [1], the “delta Tm” value was −0.5 °C.

For the compound `C/C=C1\C(=O)C[C@H]2[C@@H]3CCC4=CC(=O)CC[C@]4(C)[C@H]3CC[C@]12C` [Cpd 64, Z-Guggulsterone], the Tm (Table 1.1, 100 μM compound) came out at 46 °C. The “delta Tm” value under setting [1] was −2 °C.

For the compound `O=C(Nc1ccccc1)c1cc([N+](=O)[O-])ccc1Cl` [Cpd 62, GW 9662], the Tm (Table 1.1, 100 μM compound) was found to be 48 °C. Moreover, the “delta Tm” value under setting [1] turned out to be 0 °C.

In the case of `N[C@@H](Cc1cc(I)c(Oc2ccc(O)cc2)c(I)c1)C(=O)O` [Cpd 80, 3,5-Diiodo-L-thyroine], the Tm (Table 1.1, 100 μM compound) is 48.5 °C. The “delta Tm” value under setting [1] stood at 0.5 °C.

For the compound `CC(C)(Oc1ccc(CCNC(=O)c2ccc(Cl)cc2)cc1)C(=O)O` [Cpd 61, Bezafibrate], the ΔTm at 100 µM under setting [2] was determined as 0 °C.

For the compound `CC(C)(Sc1ccc(CCN(CCCCC2CCCCC2)C(=O)NC2CCCCC2)cc1)C(=O)O` [Cpd 74, GW 7647], the Tm (Table 1.1, 100 μM compound) amounted to 45.5 °C. Also, under setting [2], the ΔTm at 100 µM is -2.5 °C.

On to `CC(CCC(=O)NCC(=O)O)C1CCC2C3CCC4CC(O)CCC4(C)C3CC(O)C12C` (stereo not drawn) [Cpd 69, Glycodeoxycholic acid], for which the Tm (Table 1.1, 100 μM compound) was found to be 46.5 °C. Moreover, the ΔTm at 100 µM under setting [2] was -1.5 °C.

With `CC(=O)c1c(C)[nH]c(C(=O)OCC(=O)Nc2ccc(Cl)cc2[N+](=O)[O-])c1C` [Cpd 139], the Tm (Table 1.1, 100 μM compound) came out at 48.5 °C. Also, the “delta Tm” value under setting [1] turned out to be 0.5 °C.

Regarding `N#CCSc1nnc(-c2sc3ccccc3c2Cl)o1` [Cpd 128], under “Table 1.1, 100 μM compound”, the Tm is 48 °C. In addition, the “delta Tm” value under setting [1] was found to be 0 °C.

As to `C=C1/C(=C\C=C2/CCC[C@]3(C)[C@@H]([C@H](C)CCCC(C)(C)O)CC[C@@H]23)C[C@@H](O)C[C@@H]1O` [Cpd 83, 1a,25-Dihydroxyvitamin D3], the Tm (Table 1.1, 100 μM compound) was 46.5 °C. In addition, the “delta Tm” value under setting [1] is −1.5 °C.

`CCN=c1scc(-c2ccc3c(c2)NC(=O)CO3)n1N=C1CCCC1` [Cpd 137]: for the setting “Table 1.1, 100 μM compound”, the Tm was determined as 48 °C. Also, the “delta Tm” value under setting [1] came out at 0 °C.

Consider `C[C@H](CCC(=O)NCCS(=O)(=O)O)[C@H]1CC[C@H]2[C@@H]3[C@H](O)C[C@@H]4C[C@H](O)CC[C@]4(C)[C@H]3C[C@H](O)[C@]12C` [Cpd 75, Taurocholic acid], for which the ΔTm at 100 µM was -0.5 °C. Moreover, the Tm (Table 1.1, 100 μM compound) stood at 47.5 °C.

With `COc1ccc(CNc2ncnc3ccccc23)cc1` [Cpd 126], the Tm (Table 1.1, 100 μM compound) amounted to 47.5 °C. Also, under setting [1], the “delta Tm” value was −0.5 °C.

Regarding `CCCc1c(OCCCCc2nnn[nH]2)ccc(C(C)=O)c1O` [Cpd 67, LY 171883], the Tm (Table 1.1, 100 μM compound) is 46.5 °C. In addition, the ΔTm at 100 µM under setting [2] was -1.5 °C.
